Data set [1] can be described thus: Residue of diluted SG formulations passed through the wet sieve. In kind it is physicochemical. As to the method: The procedure in Example 5 was repeated by using emamectin benzoate crystalline forms A and B mentioned in U.S. Pat. No. 6,486,195.
SG samples prepared in Examples 5 and 6 were diluted with water and their residues were compared by passing through the wet sieve.

A short description of data set [2]: Stability of the crystalline modification during prolonged storage. In kind it is physicochemical.
The subject of data set [3] is Lepidoptera pole larvae and many other pests. As to conditions: cited from earlier work.
The conditions of data set [4]: cited from earlier work.

The values that follow come from patent US9643991B2, “Process for preparing a novel crystalline form of emamectin benzoate and use the same” (ROTAM AGROCHEM INTERNATIONAL CO., LTD, priority 2015, dated 2017).

For the substance “4″-deoxy-4″-epi-methylamino avermectin B1a/B1b [Crystalline forms V]”, the “Residue, Dilution factor 100” value in data set [1] (SG samples of Examples 5 and 6 diluted with water, wet sieve, dilution factor 100) is recorded as “No residue”. In addition, the “Residue, Dilution factor 1000” value in data set [1] (SG samples of Examples 5 and 6 diluted with water, wet sieve, dilution factor 1000) was “No residue”. Besides, the Stability after dilution result in data set [1] (after dilution, compared to other crystal forms) was “extremely stable after dilution”. Further, the “Conversion to other crystalline modifications” value in data set [2] is listed as “does not convert to other crystalline modifications”.
As for “4″-deoxy-4″-epi-methylamino avermectin B1a/B1b [Emamectin benzoate]”, the “Insecticidal activity higher than other avermectin pesticides” value in data set [3] (compared with abamectin, doramectin, ivermectin) is 1-3 orders of magnitude. The Effective dose in data set [3] (very low doses) is on record as 0.084-2 g/ha. Moreover, the Solubility in acetone result in data set [4] (acetone) is “soluble”. The Solubility in ethanol result in data set [4] (ethanol) is listed as “soluble”. In addition, the Solubility in hexane result in data set [4] (hexane) is “insoluble”. Besides, in data set [4] (methanol), the Solubility in methanol entry is on record as “soluble”. Further, the Solubility in water entry in data set [4] (water) is listed as “slightly soluble”.
